# Data reported in patent US20240197709A1, “POTENTIATING THE TUMOR-SELECTIVE EFFECTS OF NQO1-BIOACTIVATABLE AGENT BY USE OF CMET INHIBITOR” (The Trustees of Indiana University, priority 2022, published 2024).
# Legend:
# [1] = tested on: A549 shMET 3D spheroids; experiment: 3D spheroid growth and viability, A549 shMET; type: cell-based; settings: β-lap 3 μM
# Protocol: FIG. 5A. Representative brightfield images of A549 shSCR versus shMET 3D spheroids treated with vehicle control (0.1% DMSO) or β-lap (3 μM, which is sub-lethal in A549 NSCLC cells in 2D long-term survival assays) imaged at indicated times to monitor microtumor spheroid growth. Scale bar=250 μm.
# FIG. 5B. Graphical comparison of 3D spheroid (microtumor) growth of A549 shSCR vs shMET at indicated treatments over time relative to initial 3D spheroid area (day 1).
# FIG. 5C. Quantification of 3D spheroid viability at day 10 (in panel A) using CellTiter-Glo® 3D Cell Viability Assay.
# Studies have shown that drug sensitivity of cancer cells cultured in three-dimension (3D) more accurately predicts their sensitivity in vivo.30-31 Thus, we utilized 3D tumor spheroid growth of our isogenic A549 shSCR or shMET cancer cell lines to closely recapitulate the cell-cell interactions of human tumors32-33. After three days of spheroid formation, A549 shSCR and shMET microtumors were exposed to vehicle control (0.1% DMSO) or β-lap (3 μM, sub-lethal concentration in 2D culture for A549 parental line), and imaged over time for 3D spheroid tumor growth for comparison. […] Additionally, the viability of A549 shSCR versus shMET 3D spheroids treated with vehicle control and β-lap at day 10 was determined using CellTiter-Glo® 3D Viability Assay (FIG. 5C) for comparison. […]
# [2] = tested on: cellular hydrogen peroxide (H2O2) levels in A549 cells; experiment: ROS-Glo H2O2 Assay; type: cell-based; settings: A549, β-lap 3 μM, within 15 min, further increased at two hours
# Protocol: FIG. 2-1A. […] Growth media was then replaced with fresh media containing β-lap (3 μM) alone, criz alone (1 μM) or combination±DIC (50 μM) and collected at 15 and 120 min to measure H2O2 production using the ROS-Glo™ H2O2 Assay from Promega (Madison, WI). The assay was performed in three biological replicates.
# Next, we sought to investigate the mechanistic role of cMET in promoting resistance to ROS-induced DNA lesions caused by the futile redox cycling of β-lap with NQO1. […] In response to H2O2 stimulation, cMET can translocate into the nucleus where it interacts with PARP1 for activation to enhance the repair of ROS-induced DNA damage. […] Next we performed PARP1 immunoprecipitation studies to determine whether it associates with activated cMET in the nucleus following treatment with β-lap at increasing doses.
# [3] = β-lap monotherapy; cited from earlier work
# [4] = tested on: Capan2 PDAC shMET cells; experiment: transwell migration and invasion, Capan2 shSCR vs shMET; type: cell-based; settings: β-lap 2 μM 2 h, versus shSCR control
# Protocol: FIG. 4-1D. Representative images from in vitro transwell migration assay comparing Capan2 shSCR and Capan2 shMET treated with vehicle control or sub-lethal β-lap (2 μM, 2 h). Images were taken at 16 h post-treatment.
# FIG. 4-1E. Bar graph illustrating the percentage of Capan2 shSCR vs shMET PDAC cell migration at 16 h post-treatment with vehicle or sub-lethal β-lap (2 μM, 2 h). Two-way ANOVA was used for statistical analyses; * p<0.05; **** p<0.0001.
# FIG. 4-1F. Representative images from in vitro transwell invasion assay comparing Capan2 shSCR and Capan-2 shMET treated with vehicle control or sub-lethal β-lap (2 μM, 2 h). Images were taken at 16 h post-treatment.
# FIG. 4-1G. Bar graph illustrating the percentage of Capan2 shSCR vs shMET PDAC cell invasion at 16 h post-treatment with vehicle or sub-lethal β-lap (2 μM, 2 h). Two-way ANOVA was used for statistical analyses; * p<0.05; **** p<0.0001.
# Overexpression of cMET in many cancers, including NSCLC and PDAC, is known to enhance cancer cell mobility, migration, and invasion (Spina, et al., Biomedicines 2015, 3(1), 71-88). […]
# [5] = tested on: MIAPaCa2 NQO1−/− PDAC cell line; experiment: long-term survival, MIAPaCa2 NQO1 knock out; type: cell-based; settings: β-lap alone
# Source text: Graph showing relative long-term survival plot of isogenic MIAPaCa2 NQO1+/+ versus MIAPaCa2 NQO1−/−PDAC cell lines treated with varying concentrations of β-lap alone.
# [6] = tested on: pY1234-cMET/PARP1 nuclear interaction, A549; settings: A549, β-lap 3 μM, 2 h
smiles,measurement,setting,value
"CC1(C)CCC2=C(O1)c1ccccc1C(=O)C2=O [β-lap, β-Lapachone]",3D spheroid (microtumor) growth over time,[1],potentiated the lethal effect
same,3D spheroid viability at day 10 (CellTiter-Glo 3D),[1],more hypersensitive
same,relative amount of cellular H2O2,[2],significantly increased
same,toxicity at high doses in clinical trials,[3],methemoglobinemia and haemolysis
same,cell invasion,[4],significantly reduced
same,cell migration,[4],significantly reduced
same,sensitivity after knocking out NQO1,[5],more resistant
same,in situ interaction between activated cMET and PARP1 (PLA foci),[6],enhanced in situ interaction
